From US8648111B2, “N1-2-thiophene-2-ylethyl-N2-substituted biguanide derivate, preparation method thereof, and pharmaceutical composition containing the same as active ingredients” (Hanall Biopharma Co., Ltd., priority 2008, dated 2014)

Assays:
Assay type in all cases: cell-based
HepG2 cells [1] = experiment: Measurement of gluconeogenesis inhibitory ability (14C-lactate, glucose formed in cells); conditions: 100 uM compound, 24 hours, HepG2, lower value = stronger gluconeogenesis inhibition
Description: (§1) 2 mM metformin was used as a comparative compound for each of the plates (control group).
HepG2 cells (ATCC: American Type Culture Collection) were cultured in 10% serum-containing high glucose media, transferred to no serum-containing low glucose media (DMEM (Gibco), FBS (Gibco)), and then treated with 100 μM of each of the compounds for 24 hours. Then, the cells were treated with 0.5 μCi ^14C-lactate (Amersham Pharmacia) and 10 mM L-lactate (Sigma), and cultured for 4 hours. After cultivation, the media were removed therefrom, and the cells were washed with PBS, treated with 0.1N NaOH and kept at room temperature for 1 hour. Then, the cells were neutralized with 1N HCl, and the content of glucose formed in the cells was measured with a liquid scintillation counter.
A lower measurement value means an increased gluconeogenesis inhibitory ability.

HepG2 cells [2] = experiment: Measurement of cholesterol synthesis inhibitory ability (cholesterol content in cell lysates, Amplex red); conditions: 24 hours, HepG2, lower value = stronger cholesterol synthesis inhibition; for Cholesterol (100 uM) Aver.: 100 uM compound; for Cholesterol (500 uM) Aver.: 500 uM compound
Description: as §1
A cholesterol synthesis inhibitory ability, which is an important function of AMPK (AMP-activated protein kinase), was measured using HepG2 cells (ATCC: American Type Culture Collection) as a hepatic cell model according to the following procedure.
The hepatic cell model HepG2 cells were cultured in 1% serum-containing media (DMEM (Gibco), FBS (Gibco)) for 24 hours, and then treated with 100 μM or 500 μM of each of the compounds prepared in Examples for 24 hours. Then, the cells were disrupted with a lysis solution (0.1 M potassium phosphate, pH 7.4, 0.05 M NaCl, 5 mM cholic acid, 0.1% Triton X-100 (Sigma)). To the disrupted cells was added the same volume of a reaction solution (2 U/mL of a cholesterol oxidizing agent, 2 U/mL of a peroxidase, 0.2 U/mL of a cholesterol esterase, and 300 μM of Amplex red as a fluorescent factor (Molecular Probe)), which was allowed to react at 37° C. for 30 minutes. After completion of the reaction, the content of cholesterol formed in the cell lysates was measured at a wavelength of 560/590 nm (ex/em) using a fluorescence microscope.
A lower measurement value means an increased cholesterol synthesis inhibitory ability.

HepG2 cells [3] = experiment: Measurement of triglyceride (triglyceride content in cell lysates, Amplex red); conditions: 24 hours, HepG2, lower value = stronger triglyceride synthesis inhibition; for Triglyceride (100 uM) Aver.: 100 uM compound; for Triglyceride (500 uM) Aver.: 500 uM compound
Description: as §1
HepG2 cells (ATCC: American Type Culture Collection) were cultured in 1% serum-containing media (DMEM (Gibco), FBS (Gibco)) for 24 hours, and then treated with 100 μM or 500 μM of each of the compounds prepared in Examples for 24 hours. Then, the cells were disrupted with a lysis solution (0.1 M potassium phosphate, pH 7.4, 0.05 M NaCl, 5 mM cholic acid, 0.1% Triton X-100). […] After completion of the reaction, the content of triglyceride formed in the cell lysates was measured at a wavelength of 560/590 nm (ex/em) using a fluorescence microscope.
A lower measurement value means an increased triglyceride synthesis inhibitory ability.

C2C12 cells = experiment: Measurement of glucose absorption ability (3H-deoxy-glucose uptake with insulin); conditions: 100 uM compound with 1 μM insulin, 24 hours, differentiated C2C12, higher value = stronger, more than 200% counts as glucose absorption ability
Description: as §1
C2C12 cells (ATCC: American Type Culture Collection), a muscle cell model, were induced to differentiate into muscle cells in 2% bovine fetal serum-containing media (DMEM (Gibco), FBS (Gibco)) for 6 days. The C2C12 cells which differentiated into muscle cells were transferred to serum-free low glucose media (DMEM (Gibco), FBS (Gibco)), treated with 100 μM of each of the compounds, and then cultured with 1 μM of insulin for 24 hours. After cultivation, the cells were treated with 1 μCi ^3H-deoxy-glucose (Amersham Pharmacia) and 10 μM deoxy-glucose (Sigma) at 37° C. for 15 minutes. The media were removed therefrom, and the cells were washed twice with PBS (phosphate buffered saline). The washed cells were treated with 0.1N NaOH and neutralized with 1N HCl. The content of glucose absorbed into the cells was measured with a liquid scintillation counter.
A higher measurement value means a stronger ability to reduce insulin resistance.

| Compound | Gluconeogenesis inhibition (100 uM) Aver. (HepG2 cells [1]) | Cholesterol (100 uM) Aver. (HepG2 cells [2]) | Cholesterol (500 uM) Aver. (HepG2 cells [2]) | Triglyceride (100 uM) Aver. (HepG2 cells [3]) | Triglyceride (500 uM) Aver. (HepG2 cells [3]) | Glucose absorption (100 uM) Aver. (C2C12 cells) | Gluconeogenesis inhibition (100 uM) Aver. (HepG2 cells [1]; hydrochloride, 100 µM) | Cholesterol (100 uM) Aver. (HepG2 cells [2]; hydrochloride) | Cholesterol (500 uM) Aver. (HepG2 cells [2]; hydrochloride) | Triglyceride (100 uM) Aver. (HepG2 cells [3]; hydrochloride) | Triglyceride (500 uM) Aver. (HepG2 cells [3]; hydrochloride) | Glucose absorption (100 uM) Aver. (C2C12 cells; hydrochloride) | Gluconeogenesis inhibition (100 uM) Aver. (HepG2 cells [1]; 100 µM) |
| --- | --- | --- | --- | --- | --- | --- | --- | --- | --- | --- | --- | --- | --- |
| Cc1ccc(N=C(NCCc2cccs2)NC(=N)N)cc1.Cl [Example 19, N1-2-(thiophen-2-ylethyl)-N2-(4-methylphenyl) biguanide hydrochloride] | 74.32 | 52.9 | 29.6 | 67.7 | 46.4 | 89.16% | – | – | – | – | – | – | – |
| Cl.N=C(N)NC(=Nc1ccccc1)NCCc1cccs1 [Example 20, N1-2-(thiophen-2-ylethyl)-N2-phenyl biguanide hydrochloride] | 87.36 | 45.7 | 18.3 | 67.5 | 57.6 | 125.4% | – | – | – | – | – | – | – |
| Cl.N=C(N)NC(=NC1CCCC1)NCCc1cccs1 [Example 21, N1-2-(thiophen-2-ylethyl)-N2-cyclopentyl biguanide hydrochloride] | 97.66 | 68.2 | 45.8 | 80.5 | 85.6 | 174.8% | – | – | – | – | – | – | – |
| Cl.N=C(N)NC(=NC1CCCCCC1)NCCc1cccs1 [Example 22, N1-2-(thiophen-2-ylethyl)-N2-cycloheptyl biguanide hydrochloride] | 96.63 | 69.8 | 44.4 | 77.8 | 78.9 | 173.8% | – | – | – | – | – | – | – |
| CCCCCN=C(NCCc1cccs1)NC(=N)N.Cl [Example 23, N1-2-(thiophen-2-ylethyl)-N2-pentyl biguanide hydrochloride] | 2.96 | 11.05 | 15.66 | 13.83 | 17.16 | 0.00% | – | – | – | – | – | – | – |
| COCCN=C(NCCc1cccs1)NC(=N)N.Cl [Example 24, N1-2-(thiophen-2-ylethyl)-N2-methoxyethyl biguanide hydrochloride] | 78.89 | 92.58 | 75.75 | 77.91 | 71.93 | 114.91% | – | – | – | – | – | – | – |
| CCCCN=C(NCCc1cccs1)NC(=N)N.Cl [Example 25, N1-2-(thiophen-2-ylethyl)-N2-butyl biguanide hydrochloride] | – | – | – | – | – | – | 0.00 | 32.66 | 19.87 | 19.21 | 17.02 | 2.76% | – |
| CCCCN=C(NCCc1cccs1)NC(=N)N.Cl [Example 26, N1-2-(thiophen-2-ylethyl)-N2-butyl biguanide hydrochloride (isomer)] | – | 43.20 | 13.28 | 47.59 | 30.67 | 18.34% | – | – | – | – | – | – | 81.70 |
| Cc1cccc(N=C(NCCc2cccs2)NC(=N)N)c1.Cl [Example 27, N1-2-(thiophen-2-ylethyl)-N2-(3-methylphenyl) biguanide hydrochloride] | 56.42 | 33.26 | 28.82 | 46.45 | 20.64 | 12.91% | – | – | – | – | – | – | – |
| CC(C)(C)c1ccc(N=C(NCCc2cccs2)NC(=N)N)cc1.Cl [Example 28, N1-2-(thiophen-2-ylethyl)-N2-(4-t-butylphenyl) biguanide hydrochloride] | 2.57 | 27.49 | 26.60 | 15.55 | 15.21 | 4.29% | – | – | – | – | – | – | – |
| CCCCCCc1ccc(N=C(NCCc2cccs2)NC(=N)N)cc1.Cl [Example 29, N1-2-(thiophen-2-ylethyl)-N2-(4-hexylphenyl) biguanide hydrochloride] | 1.26 | 30.10 | 119.39 | 8.04 | 42.57 | 3.96% | – | – | – | – | – | – | – |
| COc1ccc(N=C(NCCc2cccs2)NC(=N)N)cc1.Cl [Example 30, N1-2-(thiophen-2-ylethyl)-N2-(4-methoxyphenyl) biguanide hydrochloride (isomer)] | – | 73.64 | 26.15 | 91.91 | 48.42 | 148.42% | – | – | – | – | – | – | 105.18 |
| COc1ccc(OC)c(N=C(NCCc2cccs2)NC(=N)N)c1.Cl [Example 31, N1-2-(thiophen-2-ylethyl)-N2-(2,5-dimethoxyphenyl) biguanide hydrochloride] | – | – | – | – | – | – | 96.29 | 75.67 | 49.39 | 81.74 | 57.32 | 168.20% | – |
| COc1cc(N=C(NCCc2cccs2)NC(=N)N)cc(OC)c1.Cl [Example 32, N1-2-(thiophen-2-ylethyl)-N2-(3,5-dimethoxyphenyl) biguanide hydrochloride] | 152.19 | 48.02 | 26.70 | 70.80 | 28.47 | 11.68% | – | – | – | – | – | – | – |
| Cl.N=C(N)NC(=Nc1ccc(Br)cc1)NCCc1cccs1 [Example 33, N1-2-(thiophen-2-ylethyl)-N2-(4-bromophenyl) biguanide hydrochloride] | 17.03 | 24.52 | 31.66 | 29.12 | 27.48 | 14.24% | – | – | – | – | – | – | – |
| Cl.N=C(N)NC(=Nc1cccc(Br)c1)NCCc1cccs1 [Example 34, N1-2-(thiophen-2-ylethyl)-N2-(3-bromophenyl) biguanide hydrochloride] | 4.96 | 26.00 | 32.53 | 26.57 | 19.49 | 6.05% | – | – | – | – | – | – | – |
